Measurements reported in patent publication EP3505527A1, “CYCLIC DINUCLEOTIDES FOR CYTOKINE INDUCTION” (Invivogen, priority 2017, dated 2019).
pEC50: −log10 of the molar value. Where two headings read alike, the source gives them in different places.

Tests used:
RAW-Difluo™ mLC3 Cells = assay: Autophagy induction (puncta formation) in RAW-Difluo mLC3 reporter cells; type: cell-based, murine; details: 8 hours
Procedure: The ability of the CDNs of the present invention, to activate STING-dependent autophagy induction was measured using the murine autophagy reporter cell line obtained directly from InvivoGen.
RAW-Difluo™ mLC3 Cells are autophagy reporter cells derived from the murine RAW 264.7 macrophage cell line, a physiologically relevant cell line. They express an RFP::GFP::LC3 fusion protein, RFP-GFP-LC3, in which the N-terminus of murine LC3 is fused to two fluorescent reporter proteins: a RFP (acid-stable) and a GFP (acid-sensitive). In these cells, the RFP-GFP pair enables monitoring of autophagic flux in real time by detecting the appearance of green (GFP-LC3) and/or red (RFP-LC3) puncta by fluorescence microscopy.
Approximately 50,000 cells (500 µL) per well of 24-well plates were seeded 24 h before treatment. The next day, the cells were treated either with a solution containing a CDN at one of three different concentrations (1 µg/mL, 3 µg/mL or 10 µg/mL) or with Rapamycin at 25 µM, or were left untreated. The plates were incubated at 37 °C in a CO2 incubator for 8 hours. Fluorescence intensity and puncta formation was monitored at λexc = 480 nm and λem = 505 nm.

IRF pathway [1] = biological target: T1, IRF pathway (Homo sapiens, UniProt Q86WV6); assay: ISG54 (IRF pathway) Lucia reporter assay in THP-1-Dual cells, Type I IFN induction; type: cell-based
Excerpt: The IRF pathway has been investigated by using the two following ISG reporter cell lines obtained directly from InvivoGen. They are described here and provided with their corresponding InvivoGen catalog code.

NF-κB pathway = NF-κB pathway (Homo sapiens, UniProt Q86WV6); assay: NF-κB SEAP reporter assay in THP1 Dual cells; type: cell-based
STING = assay: STING-dependent cytokine induction, overall activity in words (THP1 Dual in vitro and whole blood ex vivo, Tables 2 to 4); type: cell-based, human; details: comment on Tables 2 and 3
Excerpt: (§1) . The ex vivo (whole blood assay) cytokine-induction activity of a representative set these cyclic dinucleotides is reported here with the same protocol described in Example 2.2.
as §1, §1

IRF pathway [2] = biological target: T1, IRF pathway; assay: ISG54 reporter assay in THP-1-Dual KO-STING cells; type: cell-based; details: THP1-Dual KO-STING cells (Figures 2A and 2B)
Excerpt: THP-1-Dual™-KO-STING (InvivoGen catalog code: thpd-kostg): These cells were generated from the human monocyte THP-1-Dual™, through stable homozygote knockout of the STING gene. Bialielic STING knockout was verified by functional assays, PCR and DNA sequencing.

[3] = system: Panc02 (murine pancreatic tumor cell line); assay: Murine orthotopic Panc02 pancreatic cancer model, i.p. monotherapy; type: in vivo, mouse; details: for final mean tumor volume: Panc02, 1 mg/Kg i.p. once daily, 4 days a week for 3 weeks; for final mean tumor volume / incidence of metastasis: day 28; for tumor growth / incidence of metastasis: Panc02, 1 mg/Kg i.p.; for tumor growth: compared with control group
Excerpt: • Species evaluated: mouse • Tumor model: Panc02 (murine pancreatic tumor cell line) • Treatments tested: CL735 and CL742 (monotherapy) • Clinical parameters evaluated: tumor volume, tumor weight and incidence of metastasis • Administration routes evaluated: intraperitoneal (i.p.) injection
On Day 1, […] (C57BL/6; male) received an orthotopic injection of Panc02 tumor cells (1 x 106) in the pancreas. On Day 8, the mice were then divided into two groups of eight each (treated groups) and one group of five (control group). Each group received a different treatment, as outlined below: • Group 1 (control): saline (by i.p. injection) once daily, 4 days a week for 3 weeks; • Group 2: CL735 at 1 mg/Kg (by i.p. injection) once daily, 4 days a week for 3 weeks; • Group 3: CL742 at 1 mg/Kg (by i.p. injection) once daily, 4 days a week for 3 weeks
Left: Weight of individual Panc02 tumors at day 28 by treatment group. Right: Mean tumor weight at day 28, sd and sem for each group. • Figure 9. Left: Volume of individual Panc02 tumors at day 28 by treatment group. Right: Mean tumor volume at day 28, sd and sem for each group. • Figure 10. Incidence of metastasis in a murine model of Panc02 tumors. The mice were treated with saline (control), CL735 or CL742 monotherapies and metastases number was recorded at day 28. On the right, table indicated the mean of metastases number on animals that have survived by day 28, sd and sem for each group.

[4] = system: B16 (murine melanoma tumor cell line); assay: Murine subcutaneous B16 melanoma model, i.t. monotherapy; type: in vivo, mouse
Excerpt: • Species evaluated: mouse • Tumor model: B16 (murine melanoma tumor cell line) • Treatments tested: CL742 and CL747 (monotherapy) • Clinical parameters evaluated: tumor volume • Administration routes evaluated: intratumoral (i.t.) injection
On Day 1, 15 mice (C57BL/6; male) received a subcutaneous injection of B16 tumor cells (1 x 105) on the right flank. On Day 13, the mice were then divided into two groups of five each (treated groups) and one group of five (control group). Each group received a different treatment, as outlined below: • Group 1 (control): saline (i.t. injection) at days 13 16 and 20; • Group 2: CL742 at 1.25 mg/Kg (i.t. injection) at days 13 16 and 20; • Group 3: CL747 at 1.25 mg/Kg (i.t. injection) at days 13 16 and 20
The tumor volume and animal weight were monitored every 2 days and animals were euthanized at Day 28 (Figure 11).

Chain of NF-κB pathway (Q86WV6 whole entry): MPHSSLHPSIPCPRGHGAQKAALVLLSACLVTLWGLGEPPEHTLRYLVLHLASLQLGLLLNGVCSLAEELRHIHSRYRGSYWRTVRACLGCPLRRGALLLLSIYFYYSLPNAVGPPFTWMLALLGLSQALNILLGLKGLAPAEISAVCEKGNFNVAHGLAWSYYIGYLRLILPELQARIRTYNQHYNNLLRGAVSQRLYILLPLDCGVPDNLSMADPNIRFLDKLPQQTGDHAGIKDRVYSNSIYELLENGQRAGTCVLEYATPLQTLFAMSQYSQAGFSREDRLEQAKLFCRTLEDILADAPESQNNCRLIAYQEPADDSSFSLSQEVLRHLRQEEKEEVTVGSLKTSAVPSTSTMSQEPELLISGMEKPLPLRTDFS
T1 sequence (Q86WV6 whole entry): as above

Row | Compound | Autophagy level (RAW-Difluo™ mLC3 Cells; 1 µg/mL) | Autophagy level (RAW-Difluo™ mLC3 Cells; 3 µg/mL) | Autophagy level (RAW-Difluo™ mLC3 Cells; 10 µg/mL) | activity (ranking between compounds) (STING) | other results
1 | O=c1[nH]cnc2c1ncn2[C@@H]1O[C@@H]2COP(=O)(O)O[C@H]3[C@@H](F)[C@H](n4cnc5c(=O)[nH]cnc54)O[C@@H]3COP(=O)(O)O[C@H]2[C@H]1F [CL626, reference compound] | ++ (50% of cells have puncta) | ++ (50% of cells have puncta) | ++ (50% of cells have puncta) | – | –
2 | Nc1ncnc2c1ncn2[C@@H]1O[C@@H]2COP(=O)(O)O[C@@H]3[C@@H](F)[C@@H](COP(=O)(O)O[C@H]2[C@H]1F)O[C@H]3n1cnc2c(N)ncnc21 [CL710, (2',3')c-[xylo3'F3'dAMP-2'FdAMP]] | – | – | – | – | pEC50 (IRF pathway [1]; THP1 Dual cells, ISG read-out): < 4.30; pEC50 (NF-κB pathway; NFκB read-out): < 4.30
3 | Nc1ncnc2c1ncn2[C@@H]1O[C@@H]2COP(=O)(O)O[C@@H]3[C@@H](F)[C@@H](COP(=O)(S)O[C@H]2[C@H]1F)O[C@H]3n1cnc2c(N)ncnc21 (some centres unmarked) [CL714, (2',3')c-[xylo3'F3'dAM(PS)-2'FdAMP]] | – | – | – | CL714 > CL766 | pEC50 (IRF pathway [1]; THP1 Dual cells, ISG read-out): 5.32; pEC50 (NF-κB pathway; NFκB read-out): 4.83
4 | CC(C)(C)C(=O)OCn1cnc2c(ncn2[C@@H]2O[C@@H]3COP(=O)(O)O[C@H]4[C@@H](F)[C@H](n5cnc6c(=O)[nH]cnc65)O[C@@H]4COP(=O)(O)O[C@H]3[C@H]2F)c1=O [CL733, c-[2'FdI(POM)MP-2'FdIMP]] | +/- (10% of cells have puncta) | +/- (10% of cells have puncta) | + (25% of cells have puncta) | – | –
5 | O=c1[nH]cnc2c1ncn2[C@@H]1O[C@@H]2COP(=O)(S)O[C@H]3[C@@H](F)[C@H](n4cnc5c(=O)[nH]cnc54)O[C@@H]3COP(=O)(S)O[C@H]2[C@H]1F (stereo partly drawn) [CL735, c-di[2'FdIMP(S)]] | ++ (50% of cells have puncta) | ++ (50% of cells have puncta) | ++ (50% of cells have puncta) | – | production of Type I interferons (IRF pathway [2]): did not induced production of Type I interferons; final mean tumor volume [3]: 150 +/- 69 mm3; tumor growth [3]: significant reduction in tumor growth; incidence of metastasis [3]: no metastases were found
6 | O=c1[nH]cnc2c1ncn2[C@@H]1O[C@@H]2COP(=O)(O)O[C@@H]3[C@@H](F)[C@@H](COP(=O)(O)O[C@H]2[C@H]1F)O[C@H]3n1cnc2c(=O)[nH]cnc21 [CL742, (2',3')c-[3'F3'XylodIMP-2'FdIMP]] | +/- (10% of cells have puncta) | +/- (10% of cells have puncta) | + (25% of cells have puncta) | – | production of Type I interferons (IRF pathway [2]): did not induced production of Type I interferons; final mean tumor volume [3]: 47 +/- 29 mm3; tumor growth [3]: significant reduction in tumor growth; incidence of metastasis [3]: no metastases were found; mean tumor volume ([4]; B16, 1.25 mg/Kg i.t. at days 13 16 and 20, day 20): 779 +/- 816 mm3; tumor growth ([4]; B16, 1.25 mg/Kg i.t., compared with control group): significant reduction in tumor growth
7 | CC(C)(C)C(=O)OCSP1(=O)OC[C@H]2O[C@@H](n3cnc4c(N)ncnc43)[C@H](F)[C@@H]2OP(=O)(SCOC(=O)C(C)(C)C)OC[C@H]2O[C@@H](n3cnc4c(=O)[nH]c(N)nc43)[C@H](O1)[C@H]2F (some centres unmarked) [CL751, (2',3')c-[3'F3'XylodGM(PS-POM)-2'FdAM(PS-POM)]] | – | – | – | – | pEC50 (IRF pathway [1]; read-out: EC50 THP1 Dual ISG): 6.03; pEC50 (NF-κB pathway; read-out: EC50 THP1 Dual NFκB): 5.60
8 | CC(C)(C)C(=O)OCSP1(=O)OC[C@H]2O[C@@H](n3cnc4c(N)ncnc43)[C@H](F)[C@@H]2OP(=O)(SCOC(=O)C(C)(C)C)OC[C@H]2O[C@@H](n3cnc4c(N)ncnc43)[C@H](O1)[C@H]2F (some centres unmarked) [CL760, (2',3')c-[xylo3'F3'dAM(PS-POM)-2'FdAM(PS-POM)]] | – | – | – | – | pEC50 (IRF pathway [1]; read-out: EC50 THP1 Dual ISG): 6.48; pEC50 (NF-κB pathway; read-out: EC50 THP1 Dual NFκB): 5.75
9 | Nc1nc(Cl)nc2c1ncn2[C@H]1C[C@@H]2OP(=O)(O)OC[C@H]3O[C@@H](n4cnc5c(=O)[nH]cnc54)[C@H](F)[C@@H]3OP(=O)(O)OC[C@H]2O1 [CL761, (3'3')c-(2CIdAMP-2'FdIMP)] | – | – | – | CL761 < CL760 | –
10 | CC(C)(C)C(=O)OCn1cnc2c(ncn2[C@@H]2O[C@@H]3COP(=O)(O)O[C@H]4C[C@H](n5cnc6c(N)nc(Cl)nc65)O[C@@H]4COP(=O)(O)O[C@H]3[C@H]2F)c1=O [CL762, (3'3')c-[2CIdAMP-2'FdI(POM)MP]] | – | – | – | CL762 < CL760 | –
11 | Nc1ncnc2c1ncn2[C@@H]1O[C@@H]2COP(=O)(S)O[C@@H]3[C@@H](F)[C@@H](COP(=O)(S)O[C@H]2[C@H]1F)O[C@H]3n1cnc2c(N)ncnc21 (some centres unmarked) [CL766, (2',3')c-[xylo 3'F3'dAM(PS)-2'FdAM(PS)]] | – | – | – | – | pEC50 (IRF pathway [1]; THP1 Dual cells, ISG read-out): < 4.30; pEC50 (NF-κB pathway; NFκB read-out): < 4.30
12 | Nc1ncnc2c1ncn2[C@@H]1O[C@@H]2COP(=O)(O)O[C@@H]3[C@@H](F)[C@@H](COP(=O)(S)O[C@H]2[C@H]1F)O[C@H]3n1cnc2c(=O)[nH]cnc21 (some centres unmarked) [CL781, (2',3')c-[3'F3'XylodIMP-2'FdAM(PS)]] | – | – | – | CL781 >> CL764 | –
13 | CC(C)(C)C(=O)OCSP1(=O)OC[C@H]2O[C@@H](n3cnc4c(=O)[nH]cnc43)[C@H](OP(=O)(O)OC[C@H]3O[C@@H](n4cnc5c(N)ncnc54)[C@H](F)[C@@H]3O1)[C@H]2F (some centres unmarked) [CL784, (2',3')c-[3'F3'XylodIMP-2'FdAM(PS-POM)]] | – | – | – | CL784 > CL781 | –
14 | CO[C@H]1C[C@@H]2CC[C@@H](C)[C@@](O)(O2)C(=O)C(=O)N2CCCC[C@H]2C(=O)O[C@H]([C@H](C)C[C@@H]2CC[C@@H](O)[C@H](OC)C2)CC(=O)[C@H](C)/C=C(\C)[C@@H](O)[C@@H](OC)C(=O)[C@H](C)C[C@H](C)/C=C/C=C/C=C/1C [Rapamycin, reference compound] | – | – | – | – | Autophagy level (RAW-Difluo™ mLC3 Cells; 25 µM): ++++ (90% of cells have puncta)
15 | O=c1[nH]cnc2c1ncn2[C@@H]1O[C@@H]2COP(=O)(O)O[C@H]3[C@@H](O)[C@H](n4cnc5c(=O)[nH]cnc54)O[C@@H]3COP(=O)(O)O[C@H]2[C@H]1O [cdiIMP, reference compound] | + (25% of cells have puncta) | ++ (50% of cells have puncta) | +++ (75% of cells have puncta) | – | –
16 | (2',3')c-[3'F3'XylodIM(PS)-2'FdI(POM)MP] [CL746] | ++ (50% of cells have puncta) | ++ (50% of cells have puncta) | ++ (50% of cells have puncta) | – | –
